Results as given in ChEMBL document CHEMBL1201862, “PubChem BioAssay data set” (2004).
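Compound exposure: 48 hours, 5 concentrations, 96-well plates. GI50 = concentration required for 50% inhibition of growth.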 Active and inactive are the calls of the source. No stated cut-off is given here; in the data, active = GI50 up to about 1.1 µM and inactive = higher.

Legend:
Assay in all cases: growth of human tumour cells (NCI), 48 h
[1] = system: U-251
[2] = system: NCI-H23
[3] = system: K562
[4] = system: EKVX
[5] = system: NCI-H522
[6] = system: UACC-62
[7] = system: UO-31
[8] = system: OVCAR-4
[9] = system: OVCAR-5
[10] = system: SR
[11] = system: SF-268
[12] = system: HOP-62
[13] = system: M14
[14] = system: SNB-75
[15] = system: MDA-MB-231
[16] = system: RXF 393
[17] = system: A498
[18] = system: CCRF-CEM
[19] = system: KM12
[20] = system: SK-MEL-28

SMILES	GI50 [1]	GI50 [2]	GI50 [3]	GI50 [4]	GI50 [5]	GI50 [6]	GI50 [7]	GI50 [8]	GI50 [9]	GI50 [10]	GI50 [11]	GI50 [12]	GI50 [13]	GI50 [14]	GI50 [15]	GI50 [16]	GI50 [17]	GI50 [18]	GI50 [19]	GI50 [20]
COc1cc2c(c(O)c1OC)C(=O)C1CCC(=O)N1C2c1cccc2ccccc12 (stereo not given)	37.4 µM (inactive)	89.7 µM (inactive)	18.9 µM (inactive)	37.5 µM (inactive)	23.7 µM (inactive)	58.5 µM (inactive)	31.3 µM (inactive)	47.4 µM (inactive)	94.4 µM (inactive)	26.5 µM (inactive)	57.8 µM (inactive)	54.8 µM (inactive)	51.4 µM (inactive)	> 100 µM (inactive)	23.8 µM (inactive)	21.4 µM (inactive)	> 100 µM (inactive)	18.5 µM (inactive)	42.3 µM (inactive)	73.6 µM (inactive)
CCOC(=O)/C(=C\c1ccccc1)C(=O)CCN1CCOCC1	8.55 µM (inactive)	8.85 µM (inactive)	1.57 µM (inactive)	15.6 µM (inactive)	1.67 µM (inactive)	4.24 µM (inactive)	16.9 µM (inactive)	12.4 µM (inactive)	17.4 µM (inactive)	2.1 µM (inactive)	8.17 µM (inactive)	21 µM (inactive)	6.67 µM (inactive)	16.4 µM (inactive)	13.5 µM (inactive)	2.86 µM (inactive)	16.7 µM (inactive)	1.29 µM (inactive)	7.94 µM (inactive)	3.54 µM (inactive)
COc1ccc(C(C)NNC(=O)c2cc[n+]([BH2-]C#N)cc2)cc1F (stereo not given)	> 100 µM (inactive)	96.2 µM (inactive)	> 100 µM (inactive)	> 100 µM (inactive)	> 100 µM (inactive)	> 100 µM (inactive)	> 100 µM (inactive)	> 100 µM (inactive)	> 100 µM (inactive)	> 100 µM (inactive)	> 100 µM (inactive)	> 100 µM (inactive)	> 100 µM (inactive)	> 100 µM (inactive)	> 100 µM (inactive)	> 100 µM (inactive)	> 100 µM (inactive)	> 100 µM (inactive)	> 100 µM (inactive)	> 100 µM (inactive)
C1CCC2C(C1)CCCC2NC1=NCCO1 (stereo not given)	> 100 µM (inactive)	> 100 µM (inactive)	> 100 µM (inactive)	> 100 µM (inactive)	> 100 µM (inactive)	> 100 µM (inactive)	> 100 µM (inactive)	> 100 µM (inactive)	> 100 µM (inactive)	45 µM (inactive)	> 100 µM (inactive)	> 100 µM (inactive)	40 µM (inactive)	72.8 µM (inactive)	> 100 µM (inactive)	86.7 µM (inactive)	> 100 µM (inactive)	> 100 µM (inactive)	> 100 µM (inactive)	76 µM (inactive)
O=C1Nc2cc([N+](=O)[O-])ccc2C(=O)N2CCC[C@@H]12	> 100 µM (inactive)	> 100 µM (inactive)	> 100 µM (inactive)	> 100 µM (inactive)	> 100 µM (inactive)	> 100 µM (inactive)	> 100 µM (inactive)	> 100 µM (inactive)	> 100 µM (inactive)	> 100 µM (inactive)	> 100 µM (inactive)	> 100 µM (inactive)	> 100 µM (inactive)	> 100 µM (inactive)	> 100 µM (inactive)	> 100 µM (inactive)	> 100 µM (inactive)	> 100 µM (inactive)	> 100 µM (inactive)	> 100 µM (inactive)
Cc1cc(=O)oc2cc3oc(N(C)c4ccccc4)nc(=O)c3cc12	56 µM (inactive)	> 100 µM (inactive)	> 100 µM (inactive)	> 100 µM (inactive)	58.9 µM (inactive)	> 100 µM (inactive)	> 100 µM (inactive)	> 100 µM (inactive)	> 100 µM (inactive)	82.2 µM (inactive)	40.9 µM (inactive)	> 100 µM (inactive)	> 100 µM (inactive)	> 100 µM (inactive)	> 100 µM (inactive)	> 100 µM (inactive)	> 100 µM (inactive)	> 100 µM (inactive)	> 100 µM (inactive)	> 100 µM (inactive)
COc1cc(C2c3cc4c(cc3OC(C)(N3CCCC3)C2C)OCO4)cc(OC)c1OC (stereo not given)	0.385 µM (active)	0.883 µM (active)	0.197 µM (active)	0.43 µM (active)	0.209 µM (active)	0.373 µM (active)	1.26 µM (inactive)	9.48 µM (inactive)	0.49 µM (active)	0.0931 µM (active)	0.714 µM (active)	0.301 µM (active)	0.242 µM (active)	0.269 µM (active)	0.551 µM (active)	0.256 µM (active)	0.302 µM (active)	0.267 µM (active)	0.286 µM (active)	0.798 µM (active)
CC(=O)NC(=N/N=C1/C(=O)Nc2ccc(C)cc21)NC(C)=O	> 100 µM (inactive)	> 100 µM (inactive)	> 100 µM (inactive)	> 100 µM (inactive)	> 100 µM (inactive)	> 100 µM (inactive)	84.1 µM (inactive)	> 100 µM (inactive)	> 100 µM (inactive)	> 100 µM (inactive)	> 100 µM (inactive)	> 100 µM (inactive)	> 100 µM (inactive)	31.6 µM (inactive)	> 100 µM (inactive)	68.1 µM (inactive)	> 100 µM (inactive)	> 100 µM (inactive)	> 100 µM (inactive)	> 100 µM (inactive)
CCOC(=O)CC/C(=N/Nc1ccc(Cl)cc1[N+](=O)[O-])C(=O)OCC	> 100 µM (inactive)	> 100 µM (inactive)	> 100 µM (inactive)	> 100 µM (inactive)	> 100 µM (inactive)	> 100 µM (inactive)	> 100 µM (inactive)	> 100 µM (inactive)	> 100 µM (inactive)	45.7 µM (inactive)	> 100 µM (inactive)	> 100 µM (inactive)	> 100 µM (inactive)	61.8 µM (inactive)	> 100 µM (inactive)	> 100 µM (inactive)	34.8 µM (inactive)	> 100 µM (inactive)	> 100 µM (inactive)	> 100 µM (inactive)
COc1cc(OC)c2c(=O)cc(-c3ccccc3F)[nH]c2c1	35.8 µM (inactive)	32.9 µM (inactive)	53.3 µM (inactive)	86.5 µM (inactive)	27 µM (inactive)	52.8 µM (inactive)	28.6 µM (inactive)	14.2 µM (inactive)	73.3 µM (inactive)	60.8 µM (inactive)	39.2 µM (inactive)	82.6 µM (inactive)	39.1 µM (inactive)	33.9 µM (inactive)	76.7 µM (inactive)	29.8 µM (inactive)	48.2 µM (inactive)	88.9 µM (inactive)	32.9 µM (inactive)	> 100 µM (inactive)
COc1cc(C2c3cc4c(cc3OC(NNc3ccccc3)C2C)OCO4)cc(OC)c1OC (stereo not given)	1.12 µM (inactive)	2.83 µM (inactive)	0.437 µM (active)	1.73 µM (inactive)	0.977 µM (active)	0.544 µM (active)	0.91 µM (active)	4.94 µM (inactive)	1.69 µM (inactive)	0.673 µM (active)	1.86 µM (inactive)	0.923 µM (active)	0.869 µM (active)	8.3 µM (inactive)	3.26 µM (inactive)	1.54 µM (inactive)	2.22 µM (inactive)	0.885 µM (active)	0.395 µM (active)	1.57 µM (inactive)
CCCCCCCCCc1c(Cl)nc(Cl)nc1Cl	18.9 µM (inactive)	9.62 µM (inactive)	6.68 µM (inactive)	22.7 µM (inactive)	3.67 µM (inactive)	20 µM (inactive)	18.3 µM (inactive)	15 µM (inactive)	21 µM (inactive)	2.84 µM (inactive)	18.7 µM (inactive)	22.5 µM (inactive)	3.48 µM (inactive)	15 µM (inactive)	12.3 µM (inactive)	14.4 µM (inactive)	19.6 µM (inactive)	2.17 µM (inactive)	32.7 µM (inactive)	19.4 µM (inactive)
COC(=O)c1c(OC(C)=O)ccc2c1c1cc3ccccc3c(OC(C)=O)c1n2C	61 µM (inactive)	17.7 µM (inactive)	21.4 µM (inactive)	41.3 µM (inactive)	4.97 µM (inactive)	30.8 µM (inactive)	17.1 µM (inactive)	19.7 µM (inactive)	53.5 µM (inactive)	3.69 µM (inactive)	27.7 µM (inactive)	50 µM (inactive)	29.4 µM (inactive)	4.67 µM (inactive)	30 µM (inactive)	24.8 µM (inactive)	13.7 µM (inactive)	28.1 µM (inactive)	34.6 µM (inactive)	84.5 µM (inactive)
COc1ccc(C2c3cc4c(cc3OC3(OC)COC(=O)C23)OCO4)c(OC)c1 (stereo not given)	7.35 µM (inactive)	29.3 µM (inactive)	5.08 µM (inactive)	16.2 µM (inactive)	2.43 µM (inactive)	5.73 µM (inactive)	14.9 µM (inactive)	19.1 µM (inactive)	54.7 µM (inactive)	4.49 µM (inactive)	14.6 µM (inactive)	8.39 µM (inactive)	3.73 µM (inactive)	8.93 µM (inactive)	27.1 µM (inactive)	6.59 µM (inactive)	39.5 µM (inactive)	4.32 µM (inactive)	3.43 µM (inactive)	18.4 µM (inactive)
